Measured values reported in the NIST ThermoML archive (doi:10.1021/acs.jced.6b00354).

Assay: mn = molality of the nth substance listed, in mol/kg
Details: 100 kPa, Liquid, Alternating current cell with electrodes

CCn1cc[n+](C)c1.F[B-](F)(F)F [1-ethyl-3-methylimidazolium tetrafluoroborate] + CC(=O)N(C)C
electrical conductivity [S/m]
Details | 283.15 K | 288.15 K | 293.15 K | 298.15 K | 303.15 K | 308.15 K | 313.15 K | 318.15 K
m1 = 0.0005629 | 0.0031908 | 0.0034405 | 0.0036939 | 0.0039526 | 0.0042191 | 0.004484 | 0.0047434 | 0.0050185
m1 = 0.0006895 | 0.0038906 | 0.004193 | 0.0045017 | 0.0048205 | 0.0051443 | 0.0054656 | 0.0057804 | 0.0061132
m1 = 0.000982 | 0.0054941 | 0.0059172 | 0.0063518 | 0.0067988 | 0.0072509 | 0.0077078 | 0.0081485 | 0.0086157
m1 = 0.001939 | 0.010589 | 0.011412 | 0.012243 | 0.013099 | 0.013967 | 0.014834 | 0.015676 | 0.016565
m1 = 0.002956 | 0.015824 | 0.017057 | 0.018294 | 0.019571 | 0.020868 | 0.022135 | 0.023398 | 0.024707
m1 = 0.004046 | 0.021327 | 0.022927 | 0.024608 | 0.026319 | 0.028044 | 0.029762 | 0.031425 | 0.033169
m1 = 0.005688 | 0.029289 | 0.031559 | 0.033817 | 0.036147 | 0.038528 | 0.040878 | 0.043126 | 0.045508
m1 = 0.007809 | 0.039246 | 0.042233 | 0.045277 | 0.048414 | 0.051576 | 0.054665 | 0.057654 | 0.060821
m1 = 0.009857 | 0.048544 | 0.052266 | 0.056056 | 0.059913 | 0.063775 | 0.067588 | 0.071261 | 0.075126
m1 = 0.01192 | 0.057623 | 0.062014 | 0.06648 | 0.071 | 0.075636 | 0.08016 | 0.08449 | 0.089017
m1 = 0.01392 | 0.066221 | 0.071259 | 0.076376 | 0.081634 | 0.08688 | 0.09207 | 0.097012 | 0.10224
m1 = 0.01584 | 0.074143 | 0.079848 | 0.085601 | 0.091493 | 0.097323 | 0.10312 | 0.10873 | 0.11459
